The subject of one series is DNA methylation. Briefly: Cell-based GFP assay for reactivation of silenced GFP transgene (demethylating activity). The settings on record: for GFP Expression Level: three days, decitabine 1 μM or test compound 30-50 μM, fraction of viable cells expressing GFP; for EC50: read-out: GFP50. As for the experimental part: The demethylating activity of compounds of the invention was tested in a cell-based green fluorescent protein (GFP) assay. In the assay, a decrease in methylation resulting from exposure to a methylation inhibitor led to GFP expression, and was readily scored.
The CMV-EE210 cell line containing the epigenetically silenced GFP transgene was used to assay for reactivation of GFP expression by flow cytometry. CMV-EE210 was made by transfecting NIH 3T3 cells with the pTR-UF/UF1/UF2 plasmid, which contained pBS(+) (Stratagene, Inc.) with a cytomegalovirus (CMV) promoter driving a humanized GFP gene adapted for expression in mammalian cells. After transfection, high-level GFP expressing cells were initially selected by FACS analysis and sorting using a MoFlo cytometer (Cytomation, Inc.).
Decitabine, a potent inhibitor of mammalian DNMT 1, was used as a positive control. […] Cells were then seeded to 30% confluence (˜5000 cell/well) in a 96-well plate containing the test compounds, and grown for three days in at 37° C. in 5% CO2.
The plates were examined under a fluorescent microscope using a 450-490 excitation filter (13 filter cube, Leica, Deerfield Ill.). Wells were scored g1 positive, g2 positive, or g3 if GFP was expressed in 10%, 30%, >75% of viable cells, respectively.
Table 1 provides the results of the test for decitabine and the test compounds as DNA methylation inhibitors. GFP50 is the concentration of an inhibitor at which the Green Fluorescent Protein (GFP) expression level is reduced from g3 to g1/2.

A short description of series [1]: Stability in solvent formulations by HPLC. In kind it is physicochemical. Conditions: for % decomposition per hour / Percent compound detected: sodium salt. As to the method: The stability of a compound of the invention in various formulations under various storage conditions was investigated. Stability was determined by HPLC at the designated time intervals.

Series [2] in a line: Solubility in formulation solvent and in water. The format is physicochemical. Conditions: organic solvent or mixture; substantially anhydrous solvent of the formulations of the invention. From the text:
The good chemical stability taken together with the excellent solubility identified the glycol/glycerin/ethanol (65:25:10) system as a formulation for use in animal experiments.

A further series concerns LINE-1 DNA methylation. Briefly: LINE-1 DNA methylation in blood samples, repeat dose study. In kind it is in vivo, cynomolgus monkeys. Conditions: until day 22, p<0.05 versus level prior to initial dosing. As to the method: In a repeat dose study, monkeys were dosed 3× weekly subcutaneously (3 mg/kg). […] (FIGS. 1 and 2.) Pharmacodynamic properties (not shown) were monitored and were acceptable. Blood samples were drawn periodically to assay LINE-1 DNA methylation.

Where [3] appears, read: concentration at which GFP expression level is reduced from g3 to g1/2, CMV-EE210 cells.

Values after ≈ are worked out from the molar mass of the structure shown. Read-outs that look alike come from different tables or passages of the source.

On to `Nc1ncn([C@H]2CC(O)[C@@H](COP(=O)(O)OC3C[C@H](n4cnc5c(=O)[nH]c(N)nc54)O[C@@H]3CO)O2)c(=O)n1` (some centres unmarked) [Compound I-2], for which, in the series with DNA methylation (CMV-EE210 cells), the “GFP Expression Level” value is “g3 (>75% of viable cells)”. Besides, the EC50 in the series on DNA methylation (setting [3]) was 700 nM.
With `Nc1ncn([C@H]2CC(OP(=O)(O)OC[C@H]3O[C@@H](n4cnc5c(=O)[nH]c(N)nc54)CC3O)[C@@H](CO)O2)c(=O)n1` (stereo in doubt) [Compound I-1], the “GFP Expression Level” value in the series with DNA methylation (CMV-EE210 cells) was “g3 (>75% of viable cells)”. The EC50 in the series on DNA methylation (setting [3]) was 400 nM. Further, the “Stability in anhydrous DMSO” value in series [1] (anhydrous DMSO) is “stable”. Further, the Improvement in stability turned out to be 66 fold in series [1] (combined effects of cooling plus addition of ethanol to the propylene glycol/glycerin system) and 40 fold in series [1] (propylene glycol/glycerin/ethanol (65:25:10), changing from warmer to colder storage conditions). Moreover, the “% decomposition per hour” value in series [1] (DMSO/water (1:1, w/w), 25° C./60% relative humidity) is given as 0.72; in series [1] (DMSO/water (3:1, w/w), 25° C./60% relative humidity), 0.10; in series [1] (propylene glycol/glycerin (70:30, v/v), room temperature), 0.021; in series [1] (propylene glycol/glycerin/ethanol (65:25:10, w/w/w), 2-8° C.), 0.00032; in series [1] (propylene glycol/glycerin/ethanol (65:25:10, w/w/w), 25° C./60% relative humidity) it was 0.013; in series [1] (water, pH 7.0, 2-8° C.), 0.14. For the same compound, the “% decomposition per hour” value in series [1] (water, pH 7.0, room temperature) turned out to be 1.1. Moreover, the Percent compound detected in series [1] (DMSO/water (1:1, w/w), 25° C./60% relative humidity, 5 hours) is on record as 90.1%; in series [1] (DMSO/water (1:1, w/w), 25° C./60% relative humidity, time point 0) it was 93.7%; in series [1] (DMSO/water (3:1, w/w), 25° C./60% relative humidity, 24 hours), 94.2%; in series [1] (DMSO/water (3:1, w/w), 25° C./60% relative humidity, time point 0) it was 96.6%; in series [1] (propylene glycol/glycerin (70:30, v/v), room temperature, 24 hours), 96.3%; in series [1] (propylene glycol/glycerin (70:30, v/v), room temperature, time point 0), 96.8%. The Percent compound detected in series [1] (propylene glycol/glycerin/ethanol (65:25:10, w/w/w), 2-8° C., 3 months) came to 95.1%; in series [1] (propylene glycol/glycerin/ethanol (65:25:10, w/w/w), 2-8° C., time point 0), 95.8%; in series [1] (propylene glycol/glycerin/ethanol (65:25:10, w/w/w), 25° C./60% relative humidity, 3 months) it was 67.6%; in series [1] (propylene glycol/glycerin/ethanol (65:25:10, w/w/w), 25° C./60% relative humidity, time point 0) it was 95.8%; in series [1] (water, pH 7.0, 2-8° C., 5 hours), 95.1%; in series [1] (water, pH 7.0, 2-8° C., time point 0), 95.8%. Also, the Percent compound detected in series [1] (water, pH 7.0, room temperature, 5 hours) is recorded as 90.4%; in series [1] (water, pH 7.0, room temperature, time point 0), 95.8%. For the same compound, in series [2], the solubility (as a rule, the concentration that dissolves in the medium under given conditions) fell in the range of 130 to 150 mg/mL (≈ 233 to 269 mM). Also, the “Change in LINE-1 DNA methylation” value with LINE-1 DNA methylation is listed as “Decreases in LINE-1 DNA methylation”.
Turning to `Nc1ncn([C@H]2C[C@H](O)[C@@H](CO)O2)c(=O)n1` [Decitabine, 5-aza-2′-deoxycytidine, reference compound], the “GFP Expression Level” value in the series with DNA methylation (CMV-EE210 cells) is recorded as “g3 (>75% of viable cells)”. In addition, the EC50 in the series with DNA methylation is 500 nM.

(Values after patent publication US11058705B2, “Drug formulations” (Astex Pharmaceuticals, Inc., priority 2011, dated 2021).)
